Data published in patent publication US9783572B2, “Synthesis of syrbactin proteasome inhibitors” (The Regents of the University of California, priority 2009, dated 2017).

Key:
proteasome = assay: Syringolin A treatment of a human neuroblastoma cell line; assay type: cell-based; conditions: 25 μM
From the text: They are members of a bioactive natural product family and includes the glidobactins/cepafungins now referred to as the syrbactins. Crystallography established that both syringolin A and B form a covalent adduct with the proteasome via conjugate addition of the N-terminal threonine hydroxyl group to their α,β-unsaturated lactams. Given the known properties of proteasome inhibitors, the action of syringolin A in cancer cells was investigated.

[1] = tested on: RPMI/8226 multiple myeloma cell line; assay: Percent survival of cells, multiple myeloma versus leukemia line (FIG. 2); assay type: cell-based; conditions: FIG. 2, percent survival
From the text: Bortezomib (BZM), the first proteasome inhibitor to reach the clinic, is being used to treat patients with multiple myeloma and mantle cell lymphoma, and this is reflective of this agent's differential potency in different tumor cell types.

[2] = tested on: ubiquitinated proteins (proteasome activity) in REH cells; assay: Western blot with anti-ubiquitin antibody in treated REH cells (FIG. 3); assay type: cell-based, human; conditions: increasing concentrations
From the text: An antibody against ubiquitin to reveal the presence of ubiquitinated proteins, which accumulate (and present as a smear, due to different molecular weights) in response to the inhibition of proteasome activity. Actin was used as a loading control.

| Structure (SMILES) | accumulation of ubiquitinated proteins (proteasome) | proteasome activity (proteasome) | cytotoxicity in RPMI/8226 multiple myeloma cells compared with REH acute lymphocytic leukemia cells [1] | accumulation of ubiquitinated proteins [2] |
| --- | --- | --- | --- | --- |
| CC(C)[C@H](NC(=O)N[C@H](C(=O)N[C@H]1/C=C/CCNC(=O)/C=C/[C@H](C(C)C)NC1=O)C(C)C)C(=O)O [syringolin A] | time-dependent accumulation of ubiquitinated proteins | dose-dependent decrease in proteasome activity |  |  |
| CC(C)C[C@H](NC(=O)[C@H](Cc1ccccc1)NC(=O)c1cnccn1)B(O)O [BZM, Bortezomib] |  |  | more cytotoxic to multiple myeloma cells | substantial accumulation of ubiquitinated proteins |
